Test systems include HOP-92; OVCAR-8; DU-145; OVCAR-3; CCRF-CEM; SW-620; NCI-H23; SF-295; NCI-H226; K562; SNB-75; MDA-N; HCT-116; HOP-62; UACC-62; SK-MEL-28; EKVX; MOLT-4; OVCAR-5.
Test in all cases: DTP human tumour cell line panel, 48 h

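Test compounds were applied to cells in 96-well plates for 48 hours at 5 doses. GI50 is the concentration that inhibits growth by half.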 Activity calls are given as the source filed them. Cut-off read from the data, not from the text of the source: active = GI50 up to about 1.1 µM and inactive = higher.

For `C[N+](C)(C)CCN(Cc1cccs1)c1ccccn1`, the GI50 in the experiment with HOP-92 is 3.6 µM (inactive); with OVCAR-8 it was > 100 µM (inactive); with DU-145 it was > 100 µM (inactive); in the experiment with OVCAR-3, 35.7 µM (inactive); in the experiment on CCRF-CEM it was > 100 µM (inactive); in the experiment on SW-620, > 100 µM (inactive). For the same molecule, the GI50 with NCI-H23 is 88.1 µM (inactive); in the experiment on SF-295 it was > 100 µM (inactive); with NCI-H226 it was > 100 µM (inactive); in the experiment on K562, 64.3 µM (inactive); in the experiment on SNB-75 it was 59.8 µM (inactive); with MDA-N it was > 100 µM (inactive). Also, the GI50 with HCT-116, in the experiment with HOP-62, in the experiment with UACC-62 and in the experiment on SK-MEL-28 was > 100 µM (inactive) throughout.

In the case of `O=C1CCCC2C3CC(CN12)C1CCCCN1C3.[O-][Cl+3]([O-])([O-])O` (configuration not stated), the GI50 in the experiment on EKVX, in the experiment with MOLT-4, in the experiment on HOP-92, in the experiment with OVCAR-8, in the experiment on DU-145 and with OVCAR-3 was > 100 µM (inactive) throughout. Further, the GI50 in the experiment with CCRF-CEM, in the experiment on SW-620, in the experiment with NCI-H23, in the experiment on SF-295, in the experiment on NCI-H226 and in the experiment with OVCAR-5 was > 100 µM (inactive) in each case. In addition, the GI50 with MDA-N, in the experiment with HCT-116, with HOP-62, in the experiment with UACC-62 and in the experiment on SK-MEL-28 was > 100 µM (inactive) throughout.

Turning to `O=[N+]([O-])/C(C(Cl)=C(Cl)Cl)=C(\N1CCCCC1)n1nnc2ccccc21`, the GI50 in the experiment with EKVX is 8.47 µM (inactive); in the experiment with MOLT-4, 0.443 µM (active); in the experiment on HOP-92, 19.3 µM (inactive); in the experiment with OVCAR-8 it was 19.9 µM (inactive); in the experiment with DU-145, 18.7 µM (inactive); in the experiment with OVCAR-3, 17.9 µM (inactive). In addition, the GI50 in the experiment on SW-620 is 19.1 µM (inactive); in the experiment with NCI-H23, 19.1 µM (inactive); with SF-295, 17.5 µM (inactive); with NCI-H226 it was 20 µM (inactive); in the experiment with OVCAR-5, 17.8 µM (inactive); with K562, 8.41 µM (inactive). The GI50 was 25.6 µM (inactive) in the experiment with SNB-75; 20.8 µM (inactive) in the experiment on MDA-N; 18.9 µM (inactive) with HCT-116; 22.2 µM (inactive) in the experiment on HOP-62; 18.6 µM (inactive) in the experiment with UACC-62; 22.3 µM (inactive) in the experiment with SK-MEL-28.

`CCCC[C@@H]1CCN2C[C@@H](O)[C@@H](O)[C@@H]2[C@H]1O`: the GI50 in the experiment on EKVX, in the experiment on MOLT-4, in the experiment on HOP-92, in the experiment with OVCAR-8, with DU-145 and with OVCAR-3 was > 100 µM (inactive) throughout. Also, the GI50 in the experiment on CCRF-CEM, in the experiment with SW-620, in the experiment on NCI-H23, in the experiment on SF-295, with NCI-H226 and with OVCAR-5 was > 100 µM (inactive) throughout. Moreover, the GI50 was > 100 µM (inactive) in the experiment on K562; 89.9 µM (inactive) with SNB-75; > 100 µM (inactive) with MDA-N; > 100 µM (inactive) in the experiment with HCT-116; > 100 µM (inactive) with UACC-62; > 100 µM (inactive) in the experiment with SK-MEL-28.

Take `C=C(C)[C@@H]1CCC2=C[C@H](OC2=O)[C@@]2(C)C[C@@H]2C(=O)/C=C(/C)C(=O)[C@H]1OC(C)=O`: the GI50 in the experiment with EKVX was 21.2 µM (inactive); with MOLT-4 it was 5.66 µM (inactive); with HOP-92, 41.2 µM (inactive); in the experiment with OVCAR-8 it was 15.1 µM (inactive); with DU-145, 5.97 µM (inactive); in the experiment with OVCAR-3, 14.3 µM (inactive). Moreover, the GI50 in the experiment on CCRF-CEM is 5.02 µM (inactive); in the experiment with SW-620, 14 µM (inactive); in the experiment with NCI-H23, 11.6 µM (inactive); with SF-295, 42.6 µM (inactive); in the experiment on NCI-H226, 23.9 µM (inactive); in the experiment on OVCAR-5, 15.5 µM (inactive). Further, the GI50 in the experiment with SNB-75 is 38.9 µM (inactive); in the experiment with MDA-N, 8.67 µM (inactive); in the experiment with HCT-116 it was 5.74 µM (inactive); in the experiment on HOP-62 it was 34.6 µM (inactive); in the experiment on UACC-62, 24.2 µM (inactive); in the experiment with SK-MEL-28, 14.8 µM (inactive).

As to `Cc1nc([N+](=O)[O-])cn1-c1nc2ccccn2c1[N+](=O)[O-]`, the GI50 in the experiment with EKVX is 63.7 µM (inactive); in the experiment with HOP-92, > 100 µM (inactive); in the experiment with OVCAR-8 it was 86.1 µM (inactive); with DU-145, 26.5 µM (inactive); in the experiment with OVCAR-3, > 100 µM (inactive); in the experiment on SW-620, > 100 µM (inactive). Also, the GI50 in the experiment on NCI-H23 is 47.8 µM (inactive); in the experiment with SF-295 it was > 100 µM (inactive); in the experiment on NCI-H226 it was > 100 µM (inactive); with OVCAR-5, > 100 µM (inactive); in the experiment with K562, 80.4 µM (inactive); with SNB-75, 32.9 µM (inactive). The GI50 was 57.4 µM (inactive) in the experiment with MDA-N; 74.3 µM (inactive) in the experiment with HCT-116; 55.1 µM (inactive) with HOP-62; > 100 µM (inactive) with UACC-62; > 100 µM (inactive) in the experiment on SK-MEL-28.

With `c1ccc(/C(=N/Nc2nc3ccccc3s2)C2CCCCC2)nc1`, the GI50 in the experiment with EKVX was 11.9 µM (inactive); with MOLT-4, 0.203 µM (active); with HOP-92 it was 7.48 µM (inactive); in the experiment on OVCAR-8, 4.16 µM (inactive); in the experiment on DU-145 it was 12.6 µM (inactive); in the experiment with OVCAR-3 it was 2.92 µM (inactive). The GI50 in the experiment with CCRF-CEM was 1.98 µM (inactive); in the experiment with SW-620, 5.21 µM (inactive); in the experiment on NCI-H23 it was 6.4 µM (inactive); with SF-295, 15.8 µM (inactive); in the experiment with NCI-H226 it was 10 µM (inactive); with OVCAR-5 it was 3.26 µM (inactive). In addition, the GI50 is 7.05 µM (inactive) in the experiment with K562; 14.4 µM (inactive) with MDA-N; 0.296 µM (active) with HCT-116; 9.46 µM (inactive) in the experiment on HOP-62; 12.8 µM (inactive) in the experiment on UACC-62; 10.4 µM (inactive) in the experiment with SK-MEL-28.

As to `CC1=C2C(=O)NN=C2CCN1c1ccc(Br)cc1`, the GI50 with EKVX is > 100 µM (inactive); with MOLT-4, 9.62 µM (inactive); with HOP-92 it was > 100 µM (inactive); with OVCAR-8 it was > 100 µM (inactive); in the experiment with DU-145, > 100 µM (inactive); in the experiment on OVCAR-3, > 100 µM (inactive). The GI50 in the experiment with CCRF-CEM was 2.2 µM (inactive); in the experiment with SW-620 it was > 100 µM (inactive); with NCI-H23 it was > 100 µM (inactive); with SF-295, > 100 µM (inactive); in the experiment on NCI-H226, > 100 µM (inactive); with OVCAR-5, > 100 µM (inactive). Moreover, the GI50 in the experiment with SNB-75, in the experiment on MDA-N, in the experiment on HCT-116, in the experiment on HOP-62, with UACC-62 and in the experiment with SK-MEL-28 was > 100 µM (inactive) in each case.

With `Clc1ccc(/C=C/c2nc3ccccc3s2)cc1Cl`, the GI50 was 51.8 µM (inactive) with EKVX; > 100 µM (inactive) in the experiment with MOLT-4; 18.9 µM (inactive) in the experiment with HOP-92; 47.8 µM (inactive) with OVCAR-8; > 100 µM (inactive) with DU-145; 50.6 µM (inactive) with OVCAR-3. The GI50 with CCRF-CEM was > 100 µM (inactive); in the experiment on SW-620, 1.73 µM (inactive); with NCI-H23, 94 µM (inactive); in the experiment on SF-295, 28.1 µM (inactive); with OVCAR-5, 80.7 µM (inactive); in the experiment on K562, > 100 µM (inactive). In addition, the GI50 is 12.8 µM (inactive) in the experiment with SNB-75; 70.5 µM (inactive) with MDA-N; 19.5 µM (inactive) in the experiment with HCT-116; 22.9 µM (inactive) in the experiment with HOP-62; 59.2 µM (inactive) with UACC-62; > 100 µM (inactive) in the experiment with SK-MEL-28.

On to `NNC(=O)c1cc(Cl)ccc1NC(=O)C12CC3CC(CC(C3)C1)C2`, for which the GI50 in the experiment with MOLT-4 was 12.1 µM (inactive); in the experiment on HOP-92 it was 26.3 µM (inactive); in the experiment on OVCAR-8 it was 30.4 µM (inactive); in the experiment with DU-145, 44.8 µM (inactive); in the experiment on OVCAR-3 it was 25.5 µM (inactive); with SW-620, 39.6 µM (inactive). The GI50 was 37.6 µM (inactive) in the experiment with NCI-H23; 39.5 µM (inactive) in the experiment with SF-295; > 100 µM (inactive) with NCI-H226; 15.6 µM (inactive) in the experiment with OVCAR-5; 29.2 µM (inactive) in the experiment with K562; 42.9 µM (inactive) in the experiment with SNB-75. Moreover, the GI50 was 26.2 µM (inactive) with MDA-N; 25.2 µM (inactive) in the experiment on HCT-116; 45.6 µM (inactive) with HOP-62; 24.1 µM (inactive) with UACC-62; 29.9 µM (inactive) in the experiment on SK-MEL-28.

As for `Cc1ccc(Nc2nc(C)c(C(=O)CC(=O)C(=O)Nc3c(C)cccc3C(C)(C)C)s2)cc1`, the GI50 with EKVX was > 100 µM (inactive); in the experiment on MOLT-4 it was > 100 µM (inactive); in the experiment on HOP-92 it was > 100 µM (inactive); in the experiment with OVCAR-8 it was 79.3 µM (inactive); in the experiment on DU-145, > 100 µM (inactive); with OVCAR-3 it was > 100 µM (inactive). The GI50 with CCRF-CEM, in the experiment on SW-620, with NCI-H23, in the experiment on SF-295, in the experiment with NCI-H226 and in the experiment with OVCAR-5 was > 100 µM (inactive) in each case. The GI50 in the experiment on K562 was > 100 µM (inactive); in the experiment with MDA-N, > 100 µM (inactive); in the experiment on HCT-116, > 100 µM (inactive); with HOP-62, 38.5 µM (inactive); in the experiment on UACC-62, > 100 µM (inactive).
